# Assay results reported in patent US10189839B2, “Tricyclic imidazole compounds as inhibitors of tryptophan hydroxylase” (ACTELION PHARMACEUTICALS LTD, priority 2013, dated 2019).
# Biological target: T1, full length human TPH1 (Homo sapiens, UniProt P17752)
# T1 construct: To generate the enzyme, full length human TPH1 is cloned into the plasmid pET20b(+); made in house; host or cells: E. coli
# T1 sequence (P17752 1-444): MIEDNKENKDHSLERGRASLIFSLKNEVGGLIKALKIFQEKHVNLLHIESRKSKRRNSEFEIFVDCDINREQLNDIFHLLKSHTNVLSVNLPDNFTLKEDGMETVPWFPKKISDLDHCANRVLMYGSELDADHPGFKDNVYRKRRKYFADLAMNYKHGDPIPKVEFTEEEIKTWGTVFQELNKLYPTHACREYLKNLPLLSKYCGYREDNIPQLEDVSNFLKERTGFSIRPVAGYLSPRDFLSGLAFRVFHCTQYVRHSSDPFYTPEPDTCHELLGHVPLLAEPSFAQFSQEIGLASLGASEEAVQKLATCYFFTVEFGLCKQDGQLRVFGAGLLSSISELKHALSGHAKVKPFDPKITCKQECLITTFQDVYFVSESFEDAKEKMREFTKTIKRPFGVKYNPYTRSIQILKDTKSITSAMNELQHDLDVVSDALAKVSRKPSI
# Test: Biochemical in vitro assay using fluorescence readout (TPH1 enzyme activity)
# Conditions: Table 1, mean where determined several times
# How it was run: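 IC50 (mean of repeats) derived from 5-hydroxy-L-tryptophan fluorescence at 540 nm (300 nm excitation) relative to vehicle, after perchloric acid stop. Reaction: 60 min, 15° C., pH 7.6 Tris-HCl, 40 μM L-tryptophan, 100 μM 6-methyltetrahydropterine, DTT, catalase, with 40-80 nM purified full-length human TPH1 from E. coli.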
row,Compound,IC50
1,"CCc1nc(C(=O)NC2CC2)ccc1OCC(=O)N1CCc2nc3n(c2C1c1ncc(C2CC2)cc1F)CCS3 (stereo not drawn) [Example 4.2.1, N-cyclopropyl-5-(2-(5-(5-cyclopropyl-3-fluoropyridin-2-yl)-2,3,7,8-tetrahydrothiazolo[2′,3′:2,3]imidazo[4,5-c]pyridin-6(5H)-yl)-2-oxoethoxy)-6-ethylpicolinamide]",8 nM
2,"Cc1nc(C)c(C2c3c(nc4n3CCCC4)CCN2C(=O)COc2ccc(C#N)cc2Cl)s1 (stereo not drawn) [Example 1.10.10, 3-chloro-4-(2-(1-(2,4-dimethylthiazol-5-yl)-3,4,6,7,8,9-hexahydroimidazo[1,2-a:5,4-c′]dipyridin-2(1H)-yl)-2-oxoethoxy)benzonitrile]",207 nM
3,"Cc1nc(C)c(C2c3c(nc4n3CCCC4)CCN2C(=O)COc2ccc(N3CCN(C)CC3)nc2Cl)s1 (stereo not drawn) [Example 1.10.9, 2-((2-chloro-6-(4-methylpiperazin-1-yl)pyridin-3-yl)oxy)-1-(1-(2,4-dimethylthiazol-5-yl)-3,4,6,7,8,9-hexahydroimidazo[1,2-a:5,4-c′]dipyridin-2(1H)-yl)ethanone]",17 nM
4,"CC(=O)N1CCn2c(nc3c2C(c2ncc(C4CC4)cc2F)N(C(=O)COc2cc(F)c(N4CCOCC4)nc2Cl)CC3)C1 (stereo not drawn) [Example 5.4.9, 1-(7-acetyl-1-(5-cyclopropyl-3-fluoropyridin-2-yl)-3,4,6,7,8,9-hexahydropyrido[4′,3′:4,5]imidazo[1,2-a]pyrazin-2(1H)-yl)-2-((2-chloro-5-fluoro-6-morpholinopyridin-3-yl)oxy)ethanone]",15 nM
5,"Cc1nc(C)c(C2c3c(nc4n3CCCC4)CCN2C(=O)COc2ccc(C(=O)N(C)C3CC3)nc2Cl)s1 (stereo not drawn) [Example 1.10.2, 6-chloro-N-cyclopropyl-5-(2-(1-(2,4-dimethylthiazol-5-yl)-3,4,6,7,8,9-hexahydroimidazo[1,2-a:5,4-c′]dipyridin-2(1H)-yl)-2-oxoethoxy)-N-methylpicolinamide]",82 nM
6,"CC(=O)N1CCn2c(nc3c2C(c2cc(Cl)ccn2)N(C(=O)COc2ccc(N4CCOCC4)nc2Cl)CC3)C1 (stereo not drawn) [Example 5.16.1, 1-(7-acetyl-1-(4-chloropyridin-2-yl)-3,4,6,7,8,9-hexahydropyrido[4′,3′:4,5]imidazo[1,2-a]pyrazin-2(1H)-yl)-2-((2-chloro-6-morpholinopyridin-3-yl)oxy)ethanone]",48 nM
7,"Cc1ccc(C2c3c(nc4n3CCCC4)CCN2C(=O)COc2ccc(C(F)(F)F)cc2Cl)c(F)c1F (stereo not drawn) [Example 1.9.5, 2-(2-chloro-4-(trifluoromethyl)phenoxy)-1-(1-(2,3-difluoro-4-methylphenyl)-3,4,6,7,8,9-hexahydroimidazo[1,2-a:5,4-c′]dipyridin-2(1H)-yl)ethanone]",87 nM
8,"CNC(=O)c1ccc(OCC(=O)N2CCc3nc4n(c3C2c2sc(C)nc2C)CCCC4)c(Cl)n1 (stereo not drawn) [Example 1.10.4, 6-chloro-5-(2-(1-(2,4-dimethylthiazol-5-yl)-3,4,6,7,8,9-hexahydroimidazo[1,2-a:5,4-c′]dipyridin-2(1H)-yl)-2-oxoethoxy)-N-methylpicolinamide]",36 nM
9,"COc1nc(NS(C)(=O)=O)ccc1OCC(=O)N1CCc2nc3n(c2C1c1ccc(Cl)cc1F)CCCC3 (stereo not drawn) [Example 1.1.13, N-(5-(2-(1-(4-chloro-2-fluorophenyl)-3,4,6,7,8,9-hexahydroimidazo[1,2-a:5,4-c′]dipyridin-2(1H)-yl)-2-oxoethoxy)-6-methoxypyridin-2-yl)methanesulfonamide]",347 nM
10,"CN(C)c1ccc(OCC(=O)N2CCc3nc4n(c3C2c2ccc(Cl)cc2F)CCCC4)c(Cl)n1 (stereo not drawn) [Example 1.1.21, 1-(1-(4-chloro-2-fluorophenyl)-3,4,6,7,8,9-hexahydroimidazo[1,2-a:5,4-c′]dipyridin-2(1H)-yl)-2-((2-chloro-6-(dimethylamino)pyridin-3-yl)oxy)ethan-1-one]",13 nM
11,"CCc1nc(C(=O)NC2CC2)ccc1OCC(=O)N1CCc2nc3n(c2C1c1ncc(C2CC2)cc1F)CCCC3 (stereo not drawn) [Example 1.3.2, N-cyclopropyl-5-(2-(1-(5-cyclopropyl-3-fluoropyridin-2-yl)-3,4,6,7,8,9-hexahydroimidazo[1,2-a:5,4-c′]dipyridin-2(1H)-yl)-2-oxoethoxy)-6-ethylpicolinamide]",7 nM
12,"CN(C)S(=O)(=O)c1ccc(OCC(=O)N2CCc3nc4n(c3C2c2ccc(Cl)cc2F)CCCC4)c(Cl)n1 (stereo not drawn) [Example 1.1.29, 6-chloro-5-(2-(1-(4-chloro-2-fluorophenyl)-3,4,6,7,8,9-hexahydroimidazo[1,2-a:5,4-c′]dipyridin-2(1H)-yl)-2-oxoethoxy)-N,N-dimethylpyridine-2-sulfonamide]",129 nM
13,"Cc1ccc(C2c3c(nc4n3CCCC4)CCN2C(=O)COc2ccc(C(=O)NC3CC3)nc2Cl)c(F)c1F (stereo not drawn) [Example 1.9.8, 6-chloro-N-cyclopropyl-5-(2-(1-(2,3-difluoro-4-methylphenyl)-3,4,6,7,8,9-hexahydroimidazo[1,2-a:5,4-c′]dipyridin-2(1H)-yl)-2-oxoethoxy)picolinamide]",16 nM
14,"CS(=O)(=O)Nc1ccc(OCC(=O)N2CCc3nc4n(c3C2c2ccc(Cl)cc2F)CCCCC4)c(Cl)n1 (stereo not drawn) [Example 3.1.1, N-(6-chloro-5-(2-(1-(4-chloro-2-fluorophenyl)-3,4,7,8,9,10-hexahydro-1H-pyrido[4′,3′:4,5]imidazo[1,2-a]azepin-2(6H)-yl)-2-oxoethoxy)pyridin-2-yl)methanesulfonamide]",26 nM
15,"O=C(COc1ccc(N2CCOCC2)cc1Cl)N1CCc2nc3n(c2C1c1ccc(C2CC2)cc1F)CCN(CC1CC1)C3 (stereo not drawn) [Example 5.2.7, 2-(2-chloro-4-morpholinophenoxy)-1-(1-(4-cyclopropyl-2-fluorophenyl)-7-(cyclopropylmethyl)-3,4,6,7,8,9-hexahydropyrido[4′,3′:4,5]imidazo[1,2-a]pyrazin-2(1H)-yl)ethanone]",8 nM
16,"Cc1cnc(C2c3c(nc4n3CCCC4)CCN2C(=O)COc2ccc(NS(C)(=O)=O)nc2Cl)c(F)c1 (stereo not drawn) [Example 1.6.1, N-(6-chloro-5-(2-(1-(3-fluoro-5-methylpyridin-2-yl)-3,4,6,7,8,9-hexahydroimidazo[1,2-a:5,4-c′]dipyridin-2(1H)-yl)-2-oxoethoxy)pyridin-2-yl)methanesulfonamide]",58 nM
17,"O=C(NC1CC1)c1ccc(OCC(=O)N2CCc3nc4n(c3C2c2ccc(OC(F)(F)F)cc2F)CCCC4)c(Cl)n1 (stereo not drawn) [Example 1.20.1, 6-chloro-N-cyclopropyl-5-(2-(1-(2-fluoro-4-(trifluoromethoxy)phenyl)-3,4,6,7,8,9-hexahydroimidazo[1,2-a:5,4-c′]dipyridin-2(1H)-yl)-2-oxoethoxy)picolinamide]",26 nM
18,"CCc1nc(NS(C)(=O)=O)ccc1OCC(=O)N1CCc2nc3n(c2C1c1scnc1C)CCCC3 (stereo not drawn) [Example 1.13.1, N-(6-ethyl-5-(2-(1-(4-methylthiazol-5-yl)-3,4,6,7,8,9-hexahydroimidazo[1,2-a:5,4-c′]dipyridin-2(1H)-yl)-2-oxoethoxy)pyridin-2-yl)methanesulfonamide207]",44 nM
19,"CC(=O)N1CCn2c(nc3c2C(c2ccc(C4CC4)cc2F)N(C(=O)COc2cc(F)cnc2Cl)CC3)C1 (stereo not drawn) [Example 5.2.16, 1-(7-acetyl-1-(4-cyclopropyl-2-fluorophenyl)-3,4,6,7,8,9-hexahydropyrido[4′,3′:4,5]imidazo[1,2-a]pyrazin-2(1H)-yl)-2-((2-chloro-5-fluoropyridin-3-yl)oxy)ethanone]",25 nM
20,"CCc1nc(C(=O)NC2CC2)ccc1OCC(=O)N1CCc2nc3n(c2C1c1sc(C)nc1C)CCS3 (stereo not drawn) [Example 4.5.3, N-cyclopropyl-5-(2-(5-(2,4-dimethylthiazol-5-yl)-2,3,7,8-tetrahydrothiazolo[2′,3′:2,3]imidazo[4,5-c]pyridin-6(5H)-yl)-2-oxoethoxy)-6-ethylpicolinamide]",6 nM
21,"CCc1nc(NS(C)(=O)=O)ccc1OCC(=O)N1CCc2nc3n(c2C1c1ccc(Cl)cc1F)CCS3 (stereo not drawn) [Example 4.1.3, N-(5-(2-(5-(4-chloro-2-fluorophenyl)-2,3,7,8-tetrahydrothiazolo[2′,3′:2,3]imidazo[4,5-c]pyridin-6(5H)-yl)-2-oxoethoxy)-6-ethylpyridin-2-yl)methanesulfonamide]",16 nM
22,"CCc1nc(NS(C)(=O)=O)ccc1OCC(=O)N1CCc2nc3n(c2C1c1ccc(C2CC2)cc1F)CCS3 (stereo not drawn) [Example 4.3.1, N-(5-(2-(5-(4-cyclopropyl-2-fluorophenyl)-2,3,7,8-tetrahydrothiazolo[2′,3′:2,3]imidazo[4,5-c]pyridin-6(5H)-yl)-2-oxoethoxy)-6-ethylpyridin-2-yl)methanesulfonamide]",6 nM

# Same assay, conditions: Table 2
row,Compound,IC50
1,"CNC(=O)c1csc(C2c3c(nc4n3CCCC4)CCN2C(=O)COc2ccc(NS(C)(=O)=O)nc2Cl)n1 (stereo not drawn) [Example 1.7.1, 2-(2-(2-((2-Chloro-6-(methylsulfonamido)pyridin-3-yl)oxy)acetyl)-1,2,3,4,6,7,8,9-octahydroimidazo[1,2-a:5,4-c′]dipyridin-1-yl)-N-methylthiazole-4-carboxamide]",844 nM
2,CN(CCO)c1ccc(OCC(=O)N2CCc3nc4n(c3C2c2ccc(Cl)cc2F)CCCC4)c(Cl)n1 (stereo not drawn) [Example 1.1.27],15 nM
